From PMC12006171, “Marsupial cathelicidins: characterization, antimicrobial activity and evolution in this unique mammalian lineage” (Frontiers in Immunology, 2025)
Values after ≈ are worked out from the molar mass of the structure shown. Read-outs that look alike come from different tables or passages of the source. Where a SMILES comes first, the peptide text is derived from it.

What was measured:
Assay in all cases: microbe, parasite or virus in culture
Assay type in all cases: cell-based
[1] = test system: Streptococcus pneumoniae ATCC 49619; conditions: ATCC 49619; for MIC: read-out: MIC S. pneumoniae ATCC
Protocol: (§1) Antimicrobial testing of 78 cathelicidin MPs was performed in two phases as outlined in Figure 1 . In phase I, 40 peptides (27 extant and 13 ancestral) were selected for testing based on rank (outlined above) and similarity to published marsupial cathelicidins with known antimicrobial activity ([33], [41]–[43]). These peptides were tested against nine bacteria (Staphylococcus aureus ATCC 29213 and clinical isolate, Escherichia coli ATCC 25922 and clinical isolate, Pseudomonas aeruginosa ATCC 27853 and clinical isolate, Streptococcus agalactiae ATCC 12386 and clinical isolate, Streptococcus pneumoniae ATCC 49619) and three fungi (Candida krusei ATCC 6258, Candida parapsilosis ATCC 22019, and Candida albicans clinical isolate). Details regarding these strains are available in Supplementary Table 4 . The antimicrobial activity of cathelicidins was determined as the minimum inhibitory concentration (MIC), which was the lowest concentration of cathelicidin that prevented visible bacterial or fungal growth, relative to the negative control. […] Minimum bactericidal concentration (MBC) and/or minimum fungicidal concentration (MFC) was conducted to determine microbicidal versus static action. Activity against S. aureus ATCC, E. coli ATCC, and Pseudomonas aeruginosa ATCC 27853 was examined in the presence of divalent cations to determine the impact of inhibitors.
(§2) Antimicrobial activity was determined using a broth microdilution susceptibility assay in 96 well polypropylene plates according to Clinical Laboratory Standards Institute guidelines M07-A and M26A as described previously ([33], [42], [43]). The bacterial and fungal isolates from humans and animals used in this study are outlined in Supplementary Table 4 . Only yeasts were included in the panel of fungi as they have been used in the susceptibility testing of eutherian ([3], [81]–[83]) and other marsupial cathelicidins previously ([33], [42], [43]). Cathelicidin mature peptides were solubilized in DMSO and serially diluted in duplicate from 128-0.25μg/mL in a final volume of 100µL. For bacteria, cathelicidins were diluted in Mueller Hinton Broth (MHB) with or without 10% lysed horse blood, and with (MH II B) or without (MHB) calcium and magnesium cations. For fungi, cathelicidins were diluted in Roswell Park Memorial Institute medium (RPMI)-1640 MOPS. Ampicillin or tetracycline were included as a positive control for Gram-positive and -negative bacteria respectively, while amphotericin B was used for fungi. A media-only negative control and growth control (no cathelicidin) were also included on each plate. Bacteria were sub-cultured on Muller Hinton agar (MHA) or sheep blood agar (BA), and fungi on Sabouraud dextrose agar (SAB), 20–24 hours prior to the test. Colonies were suspended in saline, the concentration adjusted to a 0.5 McFarland standard, and then diluted in media to a concentration of 1.0 x 10^6 cells/mL. Then, 100μL was added to each well of the cathelicidin dilution plate, giving a final inoculum density of 5 x 10^5 CFU/mL and cathelicidin concentration of 64-0.125μg/mL. Colony counts were performed on MHA/BA/SAB to confirm inoculum density. All plates were incubated at 35°C for 20–24 hours, depending on the strain.
(§3) Colonies were counted and compared to the colony count of the starting inoculum.

[2] = test system: Streptococcus agalactiae Clinical isolate - animal; conditions: clinical isolate - animal; for MIC: read-out: MIC S. agalactiae
Protocol: as §1, §2, §3

[3] = test system: Streptococcus agalactiae ATCC 12386; conditions: ATCC 12386; for MIC: read-out: MIC S. agalactiae ATCC
Protocol: as §1, §2, §3

[4] = test system: Escherichia coli clinical isolate - animal; conditions: clinical isolate - animal
Summary of the method: (§4)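 Broth microdilution per CLSI M07-A/M26A: DMSO-solubilized cathelicidin mature peptides at final 64-0.125μg/mL in Mueller Hinton broth (with or without 10% lysed horse blood, with or without calcium/magnesium), final inoculum 5 x 10^5 CFU/mL, 35°C for 20–24 hours. MIC = lowest concentration preventing visible growth.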

[5] = test system: Pseudomonas aeruginosa ATCC 27853; conditions: ATCC 27853; for MIC: read-out: MIC P. aeruginosa ATCC
Summary of the method: as §4

[6] = test system: Pseudomonas aeruginosa clinical isolate - animal; conditions: clinical isolate - animal
Summary of the method: as §4

[7] = test system: Staphylococcus aureus clinical isolate - animal; conditions: clinical isolate - animal; read-out: MIC S. aureus
Summary of the method: as §4

[8] = test system: Staphylococcus aureus ATCC 29213; conditions: ATCC 29213; read-out: MIC S. aureus ATCC
Summary of the method: as §4

[9] = test system: Escherichia coli ATCC 25922; conditions: ATCC 25922
Summary of the method: as §4

[10] = read-out: MIC in the presence of cations E. coli ATCC

SMILES | MIC [1] [µM] | MIC [2] [µM] | MIC [3] [µM] | MBC E. coli [4] | MIC E. coli [4] | MIC in the presence of cations E. coli [4] | MIC [5] [µM] | MIC ([6]; read-out: MIC P. aeruginosa) [µM] | MIC [7] [µM] | MIC [8] [µM] | MBC E. coli ATCC [9] | MIC ([9]; read-out: MIC E. coli ATCC) [µM] | MIC [9, 10] [µM] | further results
CC[C@H](C)[C@H](NC(=O)[C@H](C)NC(=O)[C@H](CC(N)=O)NC(=O)[C@H](CCCCN)NC(=O)[C@H](Cc1ccccc1)NC(=O)[C@@H](NC(=O)[C@H](CC(=O)O)NC(=O)[C@H](CCCCN)NC(=O)[C@@H](NC(=O)[C@H](CCCCN)NC(=O)[C@H](CC(=O)O)NC(=O)[C@H](CO)NC(=O)[C@H](C)NC(=O)[C@H](CCCCN)NC(=O)[C@H](CCCCN)NC(=O)[C@H](CC(C)C)NC(=O)[C@H](CC(C)C)NC(=O)[C@H](CC(N)=O)NC(=O)[C@H](CCCCN)NC(=O)[C@@H](NC(=O)[C@H](CCCCN)NC(=O)[C@H](CCC(=O)O)NC(=O)[C@@H](NC(=O)[C@@H](NC(=O)[C@H](CCCNC(=N)N)NC(=O)[C@H](CC(C)C)NC(=O)[C@H](CCCNC(=N)N)NC(=O)[C@H](CCCCN)NC(=O)[C@@H](N)C(C)C)[C@@H](C)CC)C(C)C)[C@@H](C)CC)[C@@H](C)CC)[C@@H](C)O)C(=O)N[C@@H](CC(N)=O)C(=O)N[C@@H](CO)C(=O)N[C@@H](CC(C)C)C(=O)N[C@@H](CC(C)C)C(=O)N[C@@H](CO)C(=O)O [MacroCath7] (H-VKRLRIVEKIKNLLKKASDKIKDTFKNAINSLLS-OH) | >16.3 | >16.3 | >16.3 | 16.3 (16.3)^16.3 µM | 16.3 (16.3)^16.3 µM | 16.3 (16.3)^16.3 µM | >16.3 | >16.3 | >16.3 | >16.3 | 16.3 µM (≈ 64 µg/mL) | 8.1 (≈ 31.8 µg/mL) | 8.1 | 
CC[C@H](C)[C@H](NC(=O)[C@H](CC(=O)O)NC(=O)[C@H](CCCNC(=N)N)NC(=O)[C@H](CC(C)C)NC(=O)[C@H](CCCCN)NC(=O)[C@H](CCCNC(=N)N)NC(=O)[C@H](Cc1ccc(O)cc1)NC(=O)[C@H](CCCCN)NC(=O)[C@H](CCC(=O)O)NC(=O)[C@H](CC(C)C)NC(=O)[C@H](CC(C)C)NC(=O)[C@@H](NC(=O)[C@H](CCCNC(=N)N)NC(=O)[C@H](Cc1ccc(O)cc1)NC(=O)[C@H](CCCCN)NC(=O)[C@H](CCC(N)=O)NC(=O)[C@H](Cc1ccc(O)cc1)NC(=O)[C@@H](NC(=O)[C@H](CC(C)C)NC(=O)[C@@H](N)CC(N)=O)[C@@H](C)CC)[C@@H](C)CC)C(=O)N[C@@H](Cc1ccccc1)C(=O)N[C@@H](CO)C(=O)NCC(=O)O [MAP6] (H-NLIYQKYRILLEKYRKLRDIFSG-OH) | >21.8 | >21.8 | >21.8 | 10.9 (10.9)^10.9 µM | 10.9 (10.9)^10.9 µM | 10.9 (10.9)^10.9 µM | >21.8 | >21.8 | >21.8 | >21.8 | 10.9 (10.9)^10.9 µM |  |  | MIC E. coli ATCC [9]: 10.9 (10.9)^10.9 µM; MIC in the presence of cations E. coli ATCC [9]: 10.9 (10.9)^10.9 µM
CC[C@H](C)[C@H](NC(=O)[C@H](C)NC(=O)[C@H](CC(N)=O)NC(=O)[C@H](CCCCN)NC(=O)[C@H](CC(C)C)NC(=O)[C@@H](NC(=O)[C@H](CC(N)=O)NC(=O)[C@H](CCCCN)NC(=O)[C@@H](NC(=O)[C@H](CCCCN)NC(=O)[C@H](CC(=O)O)NC(=O)CNC(=O)[C@H](C)NC(=O)[C@H](CCCCN)NC(=O)[C@H](CCCCN)NC(=O)[C@H](CC(C)C)NC(=O)[C@H](CC(C)C)NC(=O)[C@H](CC(N)=O)NC(=O)[C@H](CCCCN)NC(=O)[C@H](Cc1ccccc1)NC(=O)[C@H](CCCCN)NC(=O)[C@H](CCC(=O)O)NC(=O)[C@H](Cc1ccccc1)NC(=O)[C@@H](NC(=O)[C@H](CCCNC(=N)N)NC(=O)[C@H](CC(C)C)NC(=O)[C@H](CCCNC(=N)N)NC(=O)[C@@H](N)CCCCN)[C@@H](C)CC)[C@@H](C)CC)[C@@H](C)O)C(=O)N[C@@H](CC(N)=O)C(=O)NCC(=O)N[C@@H](CC(C)C)C(=O)N[C@@H](CC(C)C)C(=O)N[C@@H](CO)C(=O)N1CCC[C@H]1C(=O)N[C@H](C(=O)NCC(=O)N[C@@H](CCCNC(=N)N)C(=O)O)[C@@H](C)CC [MAP7] (H-KRLRIFEKFKNLLKKAGDKIKNTLKNAINGLLSPIGR-OH) |  |  |  | 3.7 (3.7)^3.7 µM | 3.7 (3.7)^3.7 µM | 3.7 (3.7)^3.7 µM |  | 7.5 (≈ 31.8 µg/mL) | >15.1 | >15.1 | 3.7 µM (≈ 15.7 µg/mL) | 1.8 (≈ 7.63 µg/mL) | 1.8 | MBC S. pneumoniae ATCC [1]: 7.5 µM (≈ 31.8 µg/mL); MIC S. pneumoniae ATCC [1]: 7.5 µM (≈ 31.8 µg/mL); MBC S. agalactiae [2]: 15.1 µM (≈ 64 µg/mL); MIC S. agalactiae [2]: 15.1 µM (≈ 64 µg/mL); MBC S. agalactiae ATCC [3]: 15.1 µM (≈ 64 µg/mL); MIC S. agalactiae ATCC [3]: 15.1 µM (≈ 64 µg/mL); MBC P. aeruginosa ATCC [5]: 7.5 (7.5)^7.5 µM; MIC P. aeruginosa ATCC [5]: 7.5 (7.5)^7.5 µM; MIC in the presence of cations P. aeruginosa ATCC [5]: 7.5 (7.5)^7.5 µM; MBC P. aeruginosa [6]: 64 µg/mL (≈ 15.1 µM); MIC ([6]; read-out: MIC in the presence of cations P. aeruginosa): 7.5 µM
CC[C@H](C)[C@H](NC(=O)[C@H](CC(C)C)NC(=O)[C@H](CCCCN)NC(=O)[C@H](C)NC(=O)[C@H](CC(C)C)NC(=O)[C@H](CO)NC(=O)[C@H](CCCNC(=N)N)NC(=O)[C@@H](N)C(C)C)C(=O)N[C@@H](Cc1ccc(O)cc1)C(=O)N[C@@H](CCC(N)=O)C(=O)N[C@@H](CCCCN)C(=O)N[C@@H](Cc1ccc(O)cc1)C(=O)N[C@@H](CCCNC(=N)N)C(=O)N[C@@H](CCC(N)=O)C(=O)N[C@@H](CC(C)C)C(=O)N[C@@H](CC(C)C)C(=O)N[C@@H](CC(=O)O)C(=O)N[C@@H](CCCCN)C(=O)N[C@@H](Cc1ccc(O)cc1)C(=O)N[C@H](C(=O)N[C@H](C(=O)N[C@@H](CC(C)C)C(=O)N[C@@H](CCCNC(=N)N)C(=O)N[C@@H](CC(N)=O)C(=O)NCC(=O)N[C@@H](Cc1ccc(O)cc1)C(=O)N[C@@H](CCCCN)C(=O)N[C@@H](CCCCN)C(=O)N[C@@H](CC(C)C)C(=O)N[C@@H](CCC(N)=O)C(=O)N[C@@H](CC(=O)O)C(=O)N[C@H](C(=O)N[C@@H](Cc1ccccc1)C(=O)N[C@@H](CO)C(=O)N[C@@H](CCCCN)C(=O)N[C@@H](CCC(N)=O)C(=O)N[C@H](C(=O)NCC(=O)N[C@@H](CO)C(=O)O)C(C)C)[C@@H](C)CC)[C@@H](C)CC)[C@@H](C)O [MacroCath8] (H-VRSLAKLIYQKYRQLLDKYTILRNGYKKLQDIFSKQVGS-OH) | >13.6 | >13.6 | >13.6 |  | 13.6 (>13.6)^13.6 µM | 13.6 (>13.6)^13.6 µM | >13.6 | >13.6 | >13.6 | >13.6 |  | >13.6 |  | 
